# Results from article PMC6272674, “Selected Compounds Structurally Related to Acyclic Sesquiterpenoids and Their Antibacterial and Cytotoxic Activity” (Molecules, 2015).
# Assays:
# Fibroblasts HFIG = assay: MTT viability, HFIG; type: cell-based, human; details: Homo sapiens, Fibroblast, 24 h, range 10–1000 µM, read-out: half maximal inhibitory concentration (IC50), interpolated
# In short: (§1)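 Read-out: MTT formazan absorbance at 570 nm, expressed as treated/control optical density ratio, mean ± SD of three experiments in five replicates. Cells seeded at 1 × 10^4 cells/100 µL, compound exposure 24 h, 37 °C, 5% CO2.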
# MTT viability, IEC6 = type: cell-based; details: rat, IEC-6 small intestine epithelial cells, 1000 µM (IC50 exceeded 1000 µM), read-out: viability ± standard deviation at 1000 µM
# In short: as §1
# [1] = test system: Staphylococcus aureus ATCC 43300; assay: Micro-dilution broth MIC, Staphylococcus aureus; type: cell-based; details: ATCC43300, 24 h, 37 °C, read-out: Minimum Inhibitory Concentrations MIC
# Method: (§2) The standard strains, Gram-positive: Staphylococcus aureus ATCC […], Enterococcus faecalis Van B ATCC 51299 and Enterococcus faecium VA sensitive ATCC 35667, and Gram-negative: Escherichia coli ATCC 25922, Klebsiella pneumoniae ATCC 700603 and Acinetobacter baumannii ATCC 19606, came from a collection of the Environmental Biology Department, Medical University of Łódź. The standard strains were cultivated in Columbia Agar Medium and incubated at 37 °C for 24 h in aerobic conditions.
# (§3) The antibacterial activity of the racemates and E/Z-mixtures was investigated using the micro‑dilution broth method. The compounds were diluted in ethanol. This stock solution was mixed with 100 µL of Mueller-Hinton broth to obtain concentrations from 10 µg/mL to 80 µg/mL. The mixtures were then transferred to 96-well microtiter plates. The microbial suspension was standardised to a cell density of 1.5 × 10^8 CFU, which was equal to an optical density of 0.5 on the Mc Farland scale by a bio-Merieux densitometer; one well was filled with broth only to act as a control for strain growth.
# [2] = test system: Mycobacterium smegmatis mc^2 155 ATCC 700084; set-up: method as in PMID 21042264; details: micro-dilution, NCCLS guidelines; cited from earlier work
# [3] = test system: Escherichia coli ATCC 25922; assay: Micro-dilution broth MIC, Escherichia coli; type: cell-based; details: ATCC25922, 24 h, 37 °C, read-out: Minimum Inhibitory Concentrations MIC
# Method: as §2, §3
# Keratinocytes HaCaT = assay: MTT viability, HaCaT; type: cell-based, human; details: Homo sapiens, 24 h, range 10–1000 µM, read-out: half maximal inhibitory concentration (IC50), interpolated
# In short: as §1
# [4] = test system: Staphylococcus aureus FDA209P; set-up: method as in PMID 19078849; details: 1 × 10^5 CFU, 48 h with shaking, turbidimetric; cited from earlier work
# [5] = test system: Klebsiella pneumoniae ATCC 700603; assay: Micro-dilution broth MIC, Klebsiella pneumoniae; type: cell-based; details: ATCC700603, 24 h, 37 °C, read-out: Minimum Inhibitory Concentrations MIC
# Method: as §2, §3
# Malignant Melanoma MEWO = assay: MTT viability, MEWO; type: cell-based, human; details: Homo sapiens, 24 h, range 10–1000 µM, read-out: half maximal inhibitory concentration (IC50), interpolated
# In short: as §1
# [6] = test system: non-small cell lung cancer cells H460; set-up: method as in PMID 12753732; details: cited from earlier work
# [7] = test system: Promyelocytic Leukaemia HL-60; assay: MTT viability, HL-60; type: cell-based, human; details: Homo sapiens, HL-60, 24 h, HL-60, MTT, range 10–1000 µM, read-out: half maximal inhibitory concentration (IC50), interpolated
# In short: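 Viability is given as the optical density ratio of treated to control wells after 24 h compound treatment at 37 °C. Formazan from a 4 h MTT incubation is solubilised with SDS/DMF and measured at 570 nm.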
# [8] = test system: Acinetobacter baumannii ATCC 19606; assay: Micro-dilution broth MIC, Acinetobacter baumannii; type: cell-based; details: ATCC19606, 24 h, 37 °C, read-out: Minimum Inhibitory Concentrations MIC
# Method: as §2, §3
# [9] = test system: Colorectal Adenocarcinoma HT29; assay: MTT viability, HT29; type: cell-based, human; details: Homo sapiens, HT-29, 24 h, range 10–1000 µM, read-out: half maximal inhibitory concentration (IC50), interpolated
# In short: as §1
# [10] = test system: non-small cell lung cancer cells A549; set-up: method as in PMID 12753732; details: cited from earlier work
# [11] = test system: Enterococcus faecalis ATCC 51299; assay: Micro-dilution broth MIC, Enterococcus faecalis; type: cell-based; details: ATCC51299, 24 h, 37 °C, read-out: Minimum Inhibitory Concentrations MIC
# Method: as §2, §3
# [12] = test system: Enterococcus faecium ATCC 35667; assay: Micro-dilution broth MIC, Enterococcus faecium; type: cell-based; details: ATCC35667, 24 h, 37 °C, read-out: Minimum Inhibitory Concentrations MIC
# Method: as §2, §3
structure (smiles),measurement,setting,value
"CC(C)=CCC/C(C)=C/CC/C(C)=C/CO [Farnesol (4), farnesol, reference compound]",IC50,Fibroblasts HFIG,350 µM
same,"viability at 24 h, 1000 µM","MTT viability, IEC6",58%
same,MIC,[1],26 µg/mL
same,MIC,[2],64 µg/mL
same,MIC,[3],28 µg/mL
same,IC50,Keratinocytes HaCaT,489 µM
same,concentration at which active,[4],≥ 10 µg/mL
same,MIC,[5],16 µg/mL
same,IC50,Malignant Melanoma MEWO,378 µM
same,IC50,[6],~4.5 µM
same,IC50,[7],54 µM
same,MIC,[8],18 µg/mL
same,IC50,[9],930 µM
same,IC50,[10],~4.5 µM
same,MIC,[11],18 µg/mL
same,MIC,[12],16 µg/mL
